Data published in patent publication US10485773B2, “Benzenesulfonamide derivatives and method for treating cancer” (GONGWIN BIOPHARM HOLDINGS CO., LTD., priority 2016, dated 2019).
≈ marks a conversion by molar mass, not a printed value. Where “and” joins values, the source holds several entries; their conditions need not be identical. Identical values can stand only once. Like-named read-outs stand apart in the source and are kept apart here.

Key:
[1] = tested on: human liver cancer cell lines Hep3B; test: SRB growth inhibition of liver cancer cells; type: cell-based
Procedure: (§1) After letting to stand for 10 minutes at room temperature, the supernatant of each well was removed, and each well was washed with 200 μL H2O once. […] Each of the plates was then placed in the laminar flow cabinet for 1 hour for air dry. 50 μL 0.4% sulforhodamine B (SRB) dye was added into each well of the 96-well plate. […] Each of the plates was then placed in the laminar flow cabinet for 40 minutes to 1 hour for air dry. 1×Tris-Base solution with pH 7.0 to 7.4 was added to each well of the 96-well plate to dissolve the protein complex formed in the bottom of each well, followed by tapping the 96-well plate, allowing the complex in each well to be dissolved uniformly. Absorption of each well under 515 nm was read. […] Each of the experimental group was performed in triplet.

[2] = first dissolution test in DMSO or water; conditions: for Total volume of DMSO for dissolving the p-TSA derivatives / Total volume of water for dissolving the p-TSA derivatives: first dissolution test, amount for a 3M solution in 0.5 mL, up to 15000 μL; for solubility: thermodynamic from solid
Procedure: Each of the powder of p-TSA derivatives was duplicated, placed in each 15 mL centrifuge tube, followed by adding 200 μL DMSO or 200 μL water and shaking for 10 to 20 seconds for dissolution observation. If the powder was not dissolved, additional DMSO or water was added, and then the mixture was shaken. The tube was left to stand for 10 minutes for observation if the powder was still not dissolved after adding 1 mL DMSO or 1 mL water. If the powder was still not dissolved after adding 5 mL DMSO or 5 mL water, additional 1 mL DMSO or 1 mL water was added, and then the mixture was shaken for 30 seconds. If the powder was still not dissolved after adding 10 mL DMSO or 10 mL water, the tube was left to stand for 12 to 16 hours and observed on the next day. DMSO or water was added into the tube having the undissolved p-TSA derivatives up to 15 mL, followed by shaking for 30 minutes for observation.

[3] = tested on: human non-small-cell lung cancer cell lines H460; test: SRB growth inhibition of lung cancer cells; type: cell-based
Procedure: as §1

[4] = Homo sapiens, Hep3B, 48 h, derivative dissolved in DMSO, 48 hours, SRB, read-out: IC50 of Hep3B in DMSO
[5] = Homo sapiens, NCI-H460, 48 h, derivative dissolved in DMSO, 48 hours, SRB, read-out: IC50 of H460 in DMSO
[6] = derivative dissolved in DMSO, 48 hours, SRB, read-out: IC50 of Hep3B in DMSO
[7] = DMSO, organic solvent or mixture
[8] = derivative dissolved in DMSO, 48 hours, SRB, read-out: IC50 of H460 in DMSO
[9] = Homo sapiens, Hep3B, 48 h, derivative dissolved in water, 48 hours, SRB, read-out: IC50 of Hep3B in water
[10] = Homo sapiens, NCI-H460, 48 h, derivative dissolved in water, 48 hours, SRB, read-out: IC50 of H460 in water

Compound | IC50 [1, 4] [µM] | Total volume of DMSO for dissolving the p-TSA derivatives ([2]; DMSO) | Total volume of water for dissolving the p-TSA derivatives ([2]; water) | IC50 [3, 5] [µM] | also measured
NS(=O)(=O)c1ccc(C(=O)O)cc1 [PTSA004] | > 7000 | 960 (with pipetting) μL | insoluble in 15000 μL | 9670 | –
Cc1ccc(S(=O)(=O)N2CC(O)C2)cc1 [PTSA037] | 265 | 605 µL | insoluble in 15000 μL | 288 | IC50 [1, 6]: 274 µM and 264 µM; solubility [2, 7]: 832 mg/mL (≈ 3660 mM); solubility ([2]; water): < 50 mg/mL; IC50 [3, 8]: 259 µM
Cc1ccc(S(=O)(=O)NC(C)(CO)CO)cc1 [PTSA030] | 4310 | 695 µL | insoluble in 15000 μL | 3300 | –
Cc1ccc(S(=O)(=O)NC2CCNCC2)cc1.Cl [PTSA052] | 919 | 2000 µL | 5000 µL | 906 | IC50 [1, 9]: 954 µM; IC50 [3, 10]: 1090 µM
Cc1ccc(S(=O)(=O)NCC(C)O)cc1 (stereo not shown) [PTSA024] | 3830 | 515 µL | insoluble in 15000 μL | 3220 | –
Cc1ccc(S(=O)(=O)N2CC(CO)C2)cc1 [PTSA069] | 3620 | 880 µL | insoluble in 15000 μL | 2580 | –
Cc1ccc(S(=O)(=O)NCC(O)CO)cc1 (stereo not shown) [PTSA028] | 5360 | 620 µL | insoluble in 15000 μL | 5530 | –
Cc1ccc(S(=O)(=O)NC(CO)(CO)CO)cc1 [PTSA031] | 4210 | 700 µL | 10000 µL | 3310 | IC50 [1, 9]: > 1000 µM; IC50 [3, 10]: > 1000 µM
Cc1ccc(S(=O)(=O)NCCO)cc1 [PTSA020] | 2640 | 490 µL | 10000 µL | 2610 | IC50 [1, 9]: > 1000 µM; IC50 [3, 10]: > 1000 µM
Cc1ccc(S(=O)(=O)N2CCCC2CO)cc1 (stereo not shown) [PTSA034] | 1780 | 505 µL | insoluble in 15000 μL | 1500 | –
Cc1ccc(S(=O)(=O)N2CC[C@@H](O)C2)cc1 [PTSA035] | 2280 | 490 µL | insoluble in 15000 μL | 2830 | –
CCOC(=O)NS(=O)(=O)c1ccc(C)cc1 [PTSA015] | – | 815 µL | 500 µL | – | IC50 [1, 6]: 5770 µM; IC50 [3, 10]: 4960 µM; IC50 [3, 8]: 4790 µM
Cc1ccc(S(=O)(=O)NCC(=O)O)cc1 [PTSA044] | 9110 | 600 µL | insoluble in 15000 μL | 7930 | –
Cc1ccc(S(=O)(=O)N2CC(=O)C2)cc1 [PTSA066] | 733 | 3000 µL | insoluble in 15000 μL | 906 | –
Cc1ccc(S(=O)(=O)NC(=O)NS(=O)(=O)c2ccc(C)cc2)cc1 [PTSA018] | – | 2000 µL | 2500 µL | – | IC50 [1, 9]: > 3000 µM; IC50 [1, 6]: > 3000 µM; IC50 [3, 10]: > 3000 µM; IC50 [3, 8]: > 3000 µM
Cc1ccc(S(=O)(=O)N2CC(C(=O)[O-])C2)cc1.[Na+] [PTSA061] | – | 2500 µL | 750 µL | – | IC50 ([1]; Homo sapiens, Hep3B, 48 h, read-out: IC50 of Hep3B in DMSO): > 2250 µM; IC50 ([1]; Homo sapiens, Hep3B, 48 h, read-out: IC50 of Hep3B in water): > 8800 µM; IC50 ([3]; Homo sapiens, NCI-H460, 48 h, read-out: IC50 of H460 in DMSO): > 2250 µM; IC50 ([3]; Homo sapiens, NCI-H460, 48 h, read-out: IC50 of H460 in water): > 8800 µM
Cc1ccc(S(=O)(=O)NC2CCN(Cc3ccccc3)CC2)cc1.Cl [PTSA052i] | 137 | 4000 µL | insoluble in 15000 μL | 141 | solubility [2, 7]: 143 mg/mL; solubility ([2]; water): < 50 mg/mL

Compound | IC50 [1, 4] [µM] | Total volume of DMSO for dissolving the p-TSA derivatives ([2]; DMSO) | Total volume of water for dissolving the p-TSA derivatives ([2]; water) | IC50 [3, 5] [µM] | also measured
Cc1ccc(S(=O)(=O)N2CC(CN)C2)cc1.Cl [PTSA068] | 1250 | 4000 µL | 4500 µL | 1270 | IC50 [1, 9]: 1300 µM; IC50 [3, 10]: 1390 µM
Cc1ccc(S(=O)(=O)NC[C@@H](O)CO)cc1 [PTSA027] | 4100 | 575 µL | insoluble in 15000 μL | 5350 | –
CON=C1CN(S(=O)(=O)c2ccc(C)cc2)C1 [PTSA072] | > 1120 | 4500 µL | insoluble in 15000 μL | > 1120 | –
Cc1ccc(S(=O)(=O)N[C@@H](CO)C(=O)O)cc1 [PTSA046] | > 10000 | 845 µL | insoluble in 15000 μL | > 10000 | –
Cc1ccc(S(=O)(=O)N2CC(C#N)C2)cc1 [PTSA063] | 1300 | 900 µL | insoluble in 15000 μL | 1270 | –
Cc1ccc(S(=O)(=O)N2CCC(N)CC2)cc1.Cl [PTSA053] | – | 15000 µL | 2500 µL | – | IC50 [1, 9]: 770 µM; IC50 [3, 10]: 691 µM
Cc1ccc(S(=O)(=O)NCC2(CO)COC2)cc1 [PTSA039] | 3740 | 500 µL | insoluble in 15000 μL | 4160 | –
COC(=O)NS(=O)(=O)c1ccc(C)cc1 [PTSA011] | 4560 | 560 µL | insoluble in 15000 μL | 5490 | –
Cc1ccc(S(=O)(=O)N2CC(F)C2)cc1 [PTSA065] | 1450 | 2500 µL | insoluble in 15000 μL | 1330 | –
Cc1ccc(S(=O)(=O)NCCCO)cc1 [PTSA021] | 2810 | 495 µL | insoluble in 15000 μL | 2450 | –
Cc1ccc(S(=O)(=O)NCC2CCNCC2)cc1.Cl [PTSA054] | 935 | 740 µL | insoluble in 15000 μL | 1170 | –
CCOC(=O)NS(=O)(=O)c1ccc(C)cc1 [PTSA014] | 4590 | 610 µL | insoluble in 15000 μL | 5820 | –
Cc1ccc(S(=O)(=O)NC2COC2)cc1 [PTSA040] | 329 | 475 µL | insoluble in 15000 μL | 431 | IC50 [1, 6]: 413 µM; solubility [2, 7]: 762 mg/mL (≈ 3350 mM); solubility ([2]; water): < 50 mg/mL; IC50 [3, 8]: 406 µM
COCCCNS(=O)(=O)c1ccc(C)cc1 [PTSA043] | 1840 | 505 µL | insoluble in 15000 μL | 1610 | –
Cc1ccc(S(=O)(=O)N2CC(=NO)C2)cc1 [PTSA070] | – | 850 µL | insoluble in 15000 μL | – | –
Cc1ccc(S(=O)(=O)NCC(F)(F)F)cc1 [PTSA050] | – | 590 µL | insoluble in 15000 μL | – | –
